From patent US20140120232A1, “ACID TASTE/ACID SMELL-REDUCING AGENT” (T. HASEGAWA CO., LTD., priority 2011, published 2014)

Test: Sensory evaluation of Vermont drink containing the agent
Settings: ten panels
Outline: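 Tridecadienal or tridecatrienal isomers added at various concentrations to a Vermont-flavoured drink (apple-cider vinegar, honey, liquid sugar, citric acid, trisodium citrate, 100 mL total). Ten panelists assessed acid taste/acid smell and aldehyde-type off-odour, and the concentration giving the best acid taste/smell quality was selected.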

In the case of `CCCCC/C=C\C/C=C\CCC=O` [(Z,Z)-4,7-tridecadienal], the “A: number of panels, acid taste/acid smell extreme and cause irritation” value (0.005 ppt) is reported as 10, the “B: number of panels, acid taste/acid smell slightly strong and slightly cause irritation” value (0.005 ppt) is reported as 0 and the “C: number of panels, acid taste/acid smell slightly unpleasant” value (0.005 ppt) is reported as 0. The “Flavor judgment: number of panels who judged acid taste/acid smell quality the highest” value (0.005 ppt) was 0, the “N: number of panels, irritation of acid reduced to give a mild acid taste” value (0.005 ppt) was 0 and the “X: number of panels, acid taste reduced but piercing odor characteristic to aldehydes unpleasant” value (0.005 ppt) was 0. For the same molecule, the “A: number of panels, acid taste/acid smell extreme and cause irritation” value (0.02 ppt) was 8, the “B: number of panels, acid taste/acid smell slightly strong and slightly cause irritation” value (0.02 ppt) was 1 and the “C: number of panels, acid taste/acid smell slightly unpleasant” value (0.02 ppt) was 1. The “Flavor judgment: number of panels who judged acid taste/acid smell quality the highest” value (0.02 ppt) was 0, the “N: number of panels, irritation of acid reduced to give a mild acid taste” value (0.02 ppt) was 0 and the “X: number of panels, acid taste reduced but piercing odor characteristic to aldehydes unpleasant” value (0.02 ppt) was 0. The “A: number of panels, acid taste/acid smell extreme and cause irritation” value (0.1 ppt) was 6, the “B: number of panels, acid taste/acid smell slightly strong and slightly cause irritation” value (0.1 ppt) was 2 and the “C: number of panels, acid taste/acid smell slightly unpleasant” value (0.1 ppt) was 2. For the same molecule, the “Flavor judgment: number of panels who judged acid taste/acid smell quality the highest” value (0.1 ppt) was 0, the “N: number of panels, irritation of acid reduced to give a mild acid taste” value (0.1 ppt) was 0 and the “X: number of panels, acid taste reduced but piercing odor characteristic to aldehydes unpleasant” value (0.1 ppt) was 0. The “A: number of panels, acid taste/acid smell extreme and cause irritation” value (0.2 ppt) was 5, the “B: number of panels, acid taste/acid smell slightly strong and slightly cause irritation” value (0.2 ppt) was 3 and the “C: number of panels, acid taste/acid smell slightly unpleasant” value (0.2 ppt) was 2. For the same molecule, the “Flavor judgment: number of panels who judged acid taste/acid smell quality the highest” value (0.2 ppt) was 0, the “N: number of panels, irritation of acid reduced to give a mild acid taste” value (0.2 ppt) was 0 and the “X: number of panels, acid taste reduced but piercing odor characteristic to aldehydes unpleasant” value (0.2 ppt) was 0. For the same molecule, the “A: number of panels, acid taste/acid smell extreme and cause irritation” value (0.5 ppt) was 1, the “B: number of panels, acid taste/acid smell slightly strong and slightly cause irritation” value (0.5 ppt) was 1 and the “C: number of panels, acid taste/acid smell slightly unpleasant” value (0.5 ppt) was 3. For the same molecule, the “Flavor judgment: number of panels who judged acid taste/acid smell quality the highest” value (0.5 ppt) was 1, the “N: number of panels, irritation of acid reduced to give a mild acid taste” value (0.5 ppt) was 5 and the “X: number of panels, acid taste reduced but piercing odor characteristic to aldehydes unpleasant” value (0.5 ppt) was 0. For the same molecule, the “A: number of panels, acid taste/acid smell extreme and cause irritation” value (1 ppb) was 0, the “B: number of panels, acid taste/acid smell slightly strong and slightly cause irritation” value (1 ppb) was 0 and the “C: number of panels, acid taste/acid smell slightly unpleasant” value (1 ppb) was 3. For the same molecule, the “Flavor judgment: number of panels who judged acid taste/acid smell quality the highest” value (1 ppb) was 0, the “N: number of panels, irritation of acid reduced to give a mild acid taste” value (1 ppb) was 3 and the “X: number of panels, acid taste reduced but piercing odor characteristic to aldehydes unpleasant” value (1 ppb) was 4. The “A: number of panels, acid taste/acid smell extreme and cause irritation” value (1 ppt) was 0, the “B: number of panels, acid taste/acid smell slightly strong and slightly cause irritation” value (1 ppt) was 1 and the “C: number of panels, acid taste/acid smell slightly unpleasant” value (1 ppt) was 3. The “Flavor judgment: number of panels who judged acid taste/acid smell quality the highest” value (1 ppt) was 2, the “N: number of panels, irritation of acid reduced to give a mild acid taste” value (1 ppt) was 6 and the “X: number of panels, acid taste reduced but piercing odor characteristic to aldehydes unpleasant” value (1 ppt) was 0. The “A: number of panels, acid taste/acid smell extreme and cause irritation” value (5 ppt) was 0, the “B: number of panels, acid taste/acid smell slightly strong and slightly cause irritation” value (5 ppt) was 1 and the “C: number of panels, acid taste/acid smell slightly unpleasant” value (5 ppt) was 2. The “Flavor judgment: number of panels who judged acid taste/acid smell quality the highest” value (5 ppt) was 4, the “N: number of panels, irritation of acid reduced to give a mild acid taste” value (5 ppt) was 7 and the “X: number of panels, acid taste reduced but piercing odor characteristic to aldehydes unpleasant” value (5 ppt) was 0. For the same molecule, the “A: number of panels, acid taste/acid smell extreme and cause irritation” value (10 ppb) was 0, the “B: number of panels, acid taste/acid smell slightly strong and slightly cause irritation” value (10 ppb) was 1 and the “C: number of panels, acid taste/acid smell slightly unpleasant” value (10 ppb) was 2. For the same molecule, the “Flavor judgment: number of panels who judged acid taste/acid smell quality the highest” value (10 ppb) was 0, the “N: number of panels, irritation of acid reduced to give a mild acid taste” value (10 ppb) was 2 and the “X: number of panels, acid taste reduced but piercing odor characteristic to aldehydes unpleasant” value (10 ppb) was 5. The “A: number of panels, acid taste/acid smell extreme and cause irritation” value (20 ppt) was 0, the “B: number of panels, acid taste/acid smell slightly strong and slightly cause irritation” value (20 ppt) was 0 and the “C: number of panels, acid taste/acid smell slightly unpleasant” value (20 ppt) was 3. For the same molecule, the “Flavor judgment: number of panels who judged acid taste/acid smell quality the highest” value (20 ppt) was 3, the “N: number of panels, irritation of acid reduced to give a mild acid taste” value (20 ppt) was 6 and the “X: number of panels, acid taste reduced but piercing odor characteristic to aldehydes unpleasant” value (20 ppt) was 1. The “A: number of panels, acid taste/acid smell extreme and cause irritation” value (50 ppb) was 0, the “B: number of panels, acid taste/acid smell slightly strong and slightly cause irritation” value (50 ppb) was 0 and the “C: number of panels, acid taste/acid smell slightly unpleasant” value (50 ppb) was 1. The “Flavor judgment: number of panels who judged acid taste/acid smell quality the highest” value (50 ppb) was 0, the “N: number of panels, irritation of acid reduced to give a mild acid taste” value (50 ppb) was 2 and the “X: number of panels, acid taste reduced but piercing odor characteristic to aldehydes unpleasant” value (50 ppb) was 7. The “A: number of panels, acid taste/acid smell extreme and cause irritation” value (100 ppt) was 0, the “B: number of panels, acid taste/acid smell slightly strong and slightly cause irritation” value (100 ppt) was 1 and the “C: number of panels, acid taste/acid smell slightly unpleasant” value (100 ppt) was 3. For the same molecule, the “Flavor judgment: number of panels who judged acid taste/acid smell quality the highest” value (100 ppt) was 0, the “N: number of panels, irritation of acid reduced to give a mild acid taste” value (100 ppt) was 4 and the “X: number of panels, acid taste reduced but piercing odor characteristic to aldehydes unpleasant” value (100 ppt) was 2. For the same molecule, the “A: number of panels, acid taste/acid smell extreme and cause irritation” value (500 ppt) was 0, the “B: number of panels, acid taste/acid smell slightly strong and slightly cause irritation” value (500 ppt) was 2 and the “C: number of panels, acid taste/acid smell slightly unpleasant” value (500 ppt) was 2. The “Flavor judgment: number of panels who judged acid taste/acid smell quality the highest” value (500 ppt) was 0, the “N: number of panels, irritation of acid reduced to give a mild acid taste” value (500 ppt) was 4 and the “X: number of panels, acid taste reduced but piercing odor characteristic to aldehydes unpleasant” value (500 ppt) was 2.
